# System: Seeds of Lettuce R. (Super-Jericho)
# Test: Filter paper bioassay with lettuce seeds: germination and early plant development, Minimal Effective Concentration (MEC)
# Type: in vivo
# Conditions: lettuce seeds on filter paper, 0 to 1 mmol/l, visually assessed after 6 days
# Source text: Materials: Seeds of Lettuce R. (Super-Jericho, non-sterilized) were obtained from Ben Shahar Moshe Ltd., 99% purity. The test compounds listed in the Table 2 below were synthetized de novo or purchased from different vendors.
# Filter Paper Bioassays with Lettuce seeds: The protocol is following Bertin et al. 2009 and Movellan et al. 2014 with specified modifications as described below.
# Seeds were placed on Whatman no. 1 filter paper (Whatman, Middlesex, U.K.) in Petri dishes (10 seeds per plate) with 2.0 ml of aqueous solution of a test material in concentration ranged from 0 (control) to 1 mmol/l were placed in a tray tilted at 45[…]. The trays were kept in dark for 48 hours and then transferred to the growth chamber with 6/18 dark/light cycle for 4 days. Each experiment was performed at least with two repeats.
# The development of plants' radicle and shoots were visually assessed 6 days after the beginning of the test to determine Minimal Effective Concentration (MEC) of a test material. In the context of the invention, MEC is defined as the lowest concentration level of a test material that caused deviation (absence of germination or malformation of radicle or shoots) from the plant's development in the Control group.
row,Molecule,"Score (activity score of Minimal Effective Concentration, MEC)"
1,"O=C(O)C(F)c1nc(F)c(F)cc1F (stereo not shown) [compound 6661, 2-fluoro-2-(3,5,6-trifluoropyridin-2-yl)acetic acid]",Moderate (0.1 mM)
2,"Cl.Nc1nc2c(s1)CCCC2C(=O)O (stereo not shown) [compound 5673, 2-amino-4567-tetrahydro-1,3-benzothiazole-4-carboxylic acid hydrochloride]",<moderate
3,"Cc1nsnc1CC(=O)O [compound 5785, (4-methyl-1,2,5-thiadiazol-3-yl)acetic acid]",Moderate (0.1 mM)
4,"2-bromo-N-[(2,5-dichlorothiophen-3-yl)methyl]pyridine-4-carboxamide [compound 5614]",Moderate (0.1 mM)
5,"CCOC(=O)Cc1csc(Cl)c1 [compound 5796, ethyl(5-chlorothiophen-3-yl)acetate]",Moderate (0.1 mM)
6,"3-{[(2,5-dichlorothiophen-3-yl)methyl]amino}-2,2-difluoropropanoic acid [compound 5624]",Weak (Higher than 0.1 mM)
7,"O=C(O)C(F)(F)c1ncccn1 [compound 6619, 2,2-difluoro-2-(pyrimidin-2-yl)acetic acid]",Weak (Higher than 0.1 mM)
8,"2-(1H-1,2,4-triazol-5-yl)ethan-1-amine [compound 592]",weak
9,2-bromo-6-phenoxypyridine [compound 6645],Strong (0.01 mM)
10,"2-[2-(4-chloro-2-fluorophenyl)-1,3-thiazol-4-yl]-2,2-difluoroacetic acid [compound 5734]",Moderate (0.1 mM)
11,2-bromopyridine-4-carboxamide [compound 6600],Weak (Higher than 0.1 mM)
12,"2-(1,2,3-thiadiazol-4-yl)acetic acid [compound 5748]",Moderate (0.1 mM)
13,"Clc1cc(CCNCc2ccccc2)c(Cl)s1 [compound 5694, benzyl[2-(2,5-dichlorothiophen-3-yl)ethyl]amine]",Moderate (0.1 mM)
14,"2-(3-chloro-1,2-thiazol-4-yl)-2,2-difluoroacetic acid [compound 5773]",Moderate (0.1 mM)
15,"CS(=O)(=O)NCCNCCc1cc(Cl)sc1Cl [compound 5723, N-(2-{[2-(2,5-dichlorothiophen-3-yl)ethyl]amino}ethyl)methane sulfonamide]",Strong (0.01 mM)
16,"O=C(O)C(F)(F)c1ccc(C(F)(F)F)c(Br)n1 [compound 6682, [6-bromo-5-(trifluoromethyl)pyridin-2-yl](difluoro)acetic acid]",Strong (0.01 mM)
17,"Cl.N=C(N)c1cccc(Br)n1 [compound 6634, 6-bromopyridine-2-carboximidamide hydrochloride[HCl]]",Weak (Higher than 0.1 mM)
18,"2-{2-[3-fluoro-5-(trifluoromethyl)pyridin-2-yl]-1,3-thiazol-4-yl}acetic acid [compound 5770]",Weak (Higher than 0.1 mM)
19,"O=C(O)C(F)(F)c1ccc(F)c(Br)n1 [compound 6681, (6-bromo-5-fluoropyridin-2-yl)(difluoro)acetic acid]",very strong
20,"O=C(O)C(F)(F)c1ccc2[nH]c(=O)[nH]c2c1 [compound 5654, 2,2-difluoro-2-(2-oxo-23-dihydro-1H-1,3-benzodiazol-5-yl)acetic acid]",Weak (Higher than 0.1 mM)
21,"O=C(Cc1csc(Cl)n1)OCC(=O)c1cccc(Br)n1 [compound 5801, 2-(6-bromopyridin-2-yl)-2-oxoethyl 2-(2-chloro-1,3-thiazol-4-yl)acetate]",Moderate (0.1 mM)
22,"N=C(NCCc1cc(Cl)sc1Cl)Nc1ccc(O)cc1 [compound 5766, N-[2-(2,5-dichlorothiophen-3-yl)ethyl]-N′-(4-hydroxyphenyl)guanidine]",Moderate (0.1 mM)
23,"O=C(O)C(=O)Cc1ccnc(Br)c1 [compound 6611, 3-(2-bromopyridin-4-yl)-2-oxopropanoic acid]",Weak (Higher than 0.1 mM)

row,Molecule,"Score (activity score of Minimal Effective Concentration, MEC)"
1,"O=C(O)CCc1cc(Cl)sc1Cl [compound 5606, 3-(2,5-dichlorothiophen-3-yl)propanoic acid]",Moderate (0.1 mM)
2,"2-(2-chloro-1,3-benzothiazol-4-yl)-2,2-difluoroacetic acid [compound 5786]",Moderate (0.1 mM)
3,"[2,5-bis(trifluoromethyl)-1,3-thiazol-4-yl](difluoro)acetic acid [compound 5744]",Moderate (0.1 mM)
4,"O=C(O)/C=C/c1cncs1 [compound 5608, (2E)-3-(1,3-thiazol-5-yl)prop-2-enoic acid]",Weak (Higher than 0.1 mM)
5,3-(thiophen-3-yl)propan-1-amine [compound 593],weak
6,2-(2-phenoxypyridin-4-yl)ethan-1-amine [compound 6625],Weak (Higher than 0.1 mM)
7,"O=C(O)CCN1CCN(Cc2cc(Cl)sc2Cl)CC1 [compound 5626, 3-{4-[(2,5-dichlorothiophen-3-yl)methyl]piperazin-1-yl}propanoic acid]",Weak (Higher than 0.1 mM)
8,"2-(6-bromopyridin-3-yl)-2,2-difluoroacetic acid [compound 6620]",Strong (0.01 mM)
9,"CC(=O)Nc1nc(Cl)sc1Cl [compound 5618, N-(2,5-dichloro-1,3-thiazol-4-yl)acetamide]",Moderate (0.1 mM)
10,"Cl.NC(Cc1n[nH]c2ccccc12)C(=O)O (stereo not shown) [compound 599, 2-amino-3-(1H-indazol-3-yl)propanoic acid hydrochloride[HCl]]",Moderate (0.1 mM)
11,"OCCc1ccsc1 [compound 589, 2-(thiophen-3-yl)ethan-1-ol]",strong
12,"2-amino-2-(2,5-dichlorothiophen-3-yl)acetic acid [compound 5659]",Weak (Higher than 0.1 mM)
13,"NCCSCCc1ccsc1 [compound 5603, 2-{[2-(thiophen-3-yl)ethyl]sulfanyl}ethan-1-amine]",Weak (Higher than 0.1 mM)
14,"CCOC(=O)C(Br)c1nc(Br)sc1C (stereo not shown) [compound 5662, ethyl 2-bromo-2-(2-bromo-5-methyl-1,3-thiazol-4-yl)acetate]",Moderate (0.1 mM)
15,"O=C(O)C(F)(F)c1sc(Cl)nc1Cl [compound 5722, (24-dichloro-1,3-thiazol-5-yl)(difluoro)acetic acid]",Weak (Higher than 0.1 mM)
16,"O=C(NCC(F)(F)C(=O)O)c1ccnc(Br)c1 [compound 6618, 3-[(2-bromopyridin-4-yl)formamido]-2,2-difluoropropanoic acid]",Strong (0.01 mM)
17,"NC(=O)Nc1ccnc(Br)c1 [compound 6602, (2-bromopyridin-4-yl)urea]",Weak (Higher than 0.1 mM)
18,"O=C(O)C(F)(F)c1nc(F)c(F)cc1F [compound 6660, difluoro(3,5,6-trifluoropyridin-2-yl)acetic acid]",Moderate (0.1 mM)
19,"[2-(2,5-dichlorothiophen-3-yl)ethyl]hydrazine [compound 5705]",Moderate (0.1 mM)
20,"2,2-difluoro-2-{2-[3-fluoro-5-(trifluoromethyl)pyridin-2-yl]-1,3-thiazol-4-yl}acetic acid [compound 5736]",Moderate (0.1 mM)
21,"O=C(Cl)c1nc(Cl)sc1Cl [compound 5613, 2,5-dichloro-1,3-thiazole-4-carbonylchloride]",Weak (Higher than 0.1 mM)
22,6-bromopyridine-2-carbonitrile [compound 6670],Weak (Higher than 0.1 mM)
23,"O=C(O)C(F)(F)c1csc(-c2ccc(C(F)(F)F)cc2F)n1 [compound 5763, 2,2-difluoro-2-{2-[2-fluoro-4-(trifluoromethyl)phenyl]-1,3-thiazol-4-yl}acetic acid]",Moderate (0.1 mM)

# Reference: patent US20240284907A1, “NOVEL DERIVATIVES OF NON-CODED AMINO ACIDS AND THEIR USE AS HERBICIDES” (FortePhest LTD., priority 2021, published 2024)
